In patent US9221832B2, “Heterocyclic amide derivatives as P2X7 receptor antagonists” (ACTELION PHARMACEUTICALS LTD., priority 2011, dated 2015) one finds IC50 data, which are given here for 31 compounds.

The structures appear in SMILES notation.

This assay concerns the target human recombinant P2X7 receptor (Homo sapiens (Human), UniProt Q99572). The assay can be described thus: YO-PRO assay: P2X7 receptor antagonistic activity. The class given is cell-based. As to conditions: HEK cells expressing human P2X7.

Chain of human recombinant P2X7 receptor (Q99572 whole entry): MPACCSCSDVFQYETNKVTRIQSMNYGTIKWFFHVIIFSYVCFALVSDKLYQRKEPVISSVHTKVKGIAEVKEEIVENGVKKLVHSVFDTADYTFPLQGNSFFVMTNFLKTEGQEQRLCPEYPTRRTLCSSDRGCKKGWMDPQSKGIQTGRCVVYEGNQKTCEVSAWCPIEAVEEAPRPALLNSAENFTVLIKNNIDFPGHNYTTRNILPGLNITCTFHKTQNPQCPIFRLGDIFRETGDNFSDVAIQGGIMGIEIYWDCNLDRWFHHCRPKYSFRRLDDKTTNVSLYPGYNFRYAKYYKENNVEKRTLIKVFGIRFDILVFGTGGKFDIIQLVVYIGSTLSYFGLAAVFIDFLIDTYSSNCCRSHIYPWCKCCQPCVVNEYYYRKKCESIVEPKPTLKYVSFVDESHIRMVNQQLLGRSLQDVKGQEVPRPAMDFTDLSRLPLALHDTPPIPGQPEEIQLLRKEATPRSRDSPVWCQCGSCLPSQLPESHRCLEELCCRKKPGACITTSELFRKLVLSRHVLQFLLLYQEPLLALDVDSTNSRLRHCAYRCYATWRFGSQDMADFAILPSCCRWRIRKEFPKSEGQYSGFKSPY

By IC50 is commonly meant the concentration that inhibits the measured activity by half. For the compound `O=C(Cc1ccc(Cl)cc1Cl)NC1COc2c1ccnc2C1CC1` (racemic) [Example 104, rac-N-(7-Cyclopropyl-2,3-dihydro-furo[2,3-c]pyridin-3-yl)-2-(2,4-dichloro-phenyl)-acetamide], the IC50 was found to be 71 nM.

`CC(C(=O)NC1COc2ncccc21)c1ccc(Cl)cc1` (stereo not shown) [Example 23, 2-(4-Chloro-phenyl)-N-(2,3-dihydro-furo[2,3-b]pyridin-3-yl)-propionamide]: the IC50 worked out at 828 nM.

`CCC(C(=O)NC1COc2ncccc21)c1ccc(Cl)cc1Cl` (stereo not shown) [Example 84, 2-(2,4-Dichloro-phenyl)-N-2,3-dihydro-furo[2,3-b]pyridin-3-yl-butyramide]: the IC50 came to 55 nM.

As for `O=C(NC1COc2ncccc21)C(CO)c1ccc(Cl)cc1Cl` (stereo not shown) [Example 79, 2-(2,4-Dichloro-phenyl)-N-2,3-dihydro-furo[2,3-b]pyridin-3-yl-3-hydroxy-propionamide], the IC50 was 21 nM.

For the compound `O=C(Cc1c(Cl)cc(Cl)cc1C(F)(F)F)NC1COc2ncccc21` (racemic) [Example 33, rac-2-(2,4-Dichloro-6-trifluoromethyl-phenyl)-N-(2,3-dihydro-furo[2,3-b]pyridin-3-yl)-acetamide], the IC50 was 242 nM.

As to `Cc1cc(Cl)cc(Cl)c1CC(=O)NC1COc2nccc(C(F)(F)F)c21` (racemic) [Example 151, rac-2-(2,4-Dichloro-6-methyl-phenyl)-N-(4-trifluoromethyl-2,3-dihydro-furo[2,3-b]pyridin-3-yl)-acetamide], the IC50 came out at 6690 nM.

For `Cc1cc(Cl)cc(Cl)c1CC(=O)NC1CCOc2ncccc21` (single isomer, unassigned) [Example 29, 2-(2,4-Dichloro-6-methyl-phenyl)-N-(3,4-dihydro-2H-pyrano[2,3-b]pyridin-4-yl)-acetamide], the IC50 is 172 nM.

For the compound `O=C(Cc1cc(Cl)ccc1C(F)(F)F)NC1COc2ncccc21` (racemic) [Example 43, rac-2-(5-Chloro-2-trifluoromethyl-phenyl)-N-(2,3-dihydro-furo[2,3-b]pyridin-3-yl)-acetamide], the IC50 was 8050 nM.

`O=C(Cc1cccc(C(F)(F)F)c1F)NC1COc2ncccc21` (racemic) [Example 90, rac-N-(2,3-Dihydro-furo[2,3-b]pyridin-3-yl)-2-(2-fluoro-3-trifluoromethyl-phenyl)-acetamide]: the IC50 turned out to be 92 nM.

Regarding `O=C(COc1ccc(Cl)c(Cl)c1)NC1COc2ncccc21` (racemic) [Example 141, rac-2-(3,4-Dichloro-phenoxy)-N-(2,3-dihydro-furo[2,3-b]pyridin-3-yl)-acetamide], the IC50 is more than 8630 nM.

Regarding `COc1ccnc2c1C(NC(=O)Cc1cccc(C(F)(F)F)c1Cl)CO2` (racemic) [Example 139, rac-2-(2-Chloro-3-trifluoromethyl-phenyl)-N-(4-methoxy-2,3-dihydro-furo[2,3-b]pyridin-3-yl)-acetamide], the IC50 stood at 272 nM.

In the case of `N#Cc1cccc(CC(=O)NC2COc3ncccc32)c1Cl` (single isomer, unassigned) [Example 98, 2-(2-Chloro-3-cyano-phenyl)-N-2,3-dihydro-furo[2,3-b]pyridin-3-yl-acetamide], the IC50 was found to be 29 nM.

Regarding `Cc1cc(Cl)cc(Cl)c1CC(=O)NC1COc2cnccc21` (single isomer, unassigned) [Example 101, 2-(2,4-Dichloro-6-methyl-phenyl)-N-2,3-dihydro-furo[2,3-c]pyridin-3-yl-acetamide], the IC50 is 598 nM.

Turning to `Cc1cc(Cl)cc(Cl)c1CC(=O)NC1COc2ncccc21` (single isomer, unassigned) [Example 6, 2-(2,4-Dichloro-6-methyl-phenyl)-N-(2,3-dihydro-furo[2,3-b]pyridin-3-yl)-acetamide], the 50% inhibitory concentration (IC50) is 16 nM.

Take `O=C(COc1ccc(Cl)cc1Cl)NC1COc2ncccc21` (racemic) [Example 140, rac-2-(2,4-Dichloro-phenoxy)-N-(2,3-dihydro-furo[2,3-b]pyridin-3-yl)-acetamide]: the IC50 was more than 8410 nM.

In the case of `O=C(Cc1c(Cl)ccc(Cl)c1F)NC1COc2ncccc21` (racemic) [Example 77, rac-2-(3,6-Dichloro-2-fluoro-phenyl)-N-(2,3-dihydro-furo[2,3-b]pyridin-3-yl)-acetamide], the IC50 came to 2480 nM.

Take `O=C(Cc1cccc(C(F)(F)F)c1Cl)NC1CCOc2ncccc21` (racemic) [Example 49, rac-2-(2-Chloro-3-trifluoromethyl-phenyl)-N-(3,4-dihydro-2H-pyrano[2,3-b]pyridin-4-yl)-acetamide]: the 50% inhibitory concentration (IC50) stood at 17 nM.

On to `O=C(Cc1c(C(F)(F)F)ccc(Cl)c1Cl)NC1COc2ncccc21` (racemic) [Example 71, rac-2-(2,3-Dichloro-6-trifluoromethyl-phenyl)-N-(2,3-dihydro-furo[2,3-b]pyridin-3-yl)-acetamide], for which the IC50 was found to be 3230 nM.

Consider `O=C(Cc1c(F)cc(Cl)cc1Cl)NC1COc2ncccc21` (racemic) [Example 76, rac-2-(2,4-Dichloro-6-fluoro-phenyl)-N-(2,3-dihydro-furo[2,3-b]pyridin-3-yl)-acetamide], for which the IC50 was 90 nM.

Consider `O=C(Cc1cccc(C(F)(F)F)c1Cl)NC1COc2cncc(C3CC3)c21` (racemic) [Example 132, rac-2-(2-Chloro-3-trifluoromethyl-phenyl)-N-(4-cyclopropyl-2,3-dihydro-furo[2,3-c]pyridin-3-yl)-acetamide], for which the IC50 came to 506 nM.

On to `Cc1cc(CC(=O)NC2CCOc3ncccc32)on1` (racemic) [Example 62, rac-N-(3,4-Dihydro-2H-pyrano[2,3-b]pyridin-4-yl)-2-(3-methyl-isoxazol-5-yl)-acetamide], for which the IC50 is 2080 nM.

`O=C(NC1COc2ncccc21)C1Cc2ccc(Cl)cc2C1` (stereo not shown) [Example 149, 5-chloro-N-(2,3-dihydrofuro[2,3-b]pyridin-3-yl)-2,3-dihydro-1H-indene-2-carboxamide]: the IC50 came out at 4690 nM.

`O=C(CCCc1ccc(F)cc1)NC1COc2ncccc21` (racemic) [Example 82, rac-N-(2,3-Dihydro-furo[2,3-b]pyridin-3-yl)-4-(4-fluoro-phenyl)-butyramide]: the half-maximal inhibitory concentration (IC50) amounted to 2030 nM.

For `[2H]C([2H])([2H])C(C(=O)NC1COc2ncccc21)c1ccc(Cl)cc1Cl` (stereo not shown) [Example 86, 2-(2,4-Dichloro-phenyl)-2-trideuteromethyl-N-2,3-dihydro-furo[2,3-b]pyridin-3-yl-acetamide], the IC50 amounted to 33 nM.

As to `COc1ccc(CC(=O)NC2COc3ncccc32)c(F)c1` (racemic) [Example 20, rac-N-(2,3-Dihydro-furo[2,3-b]pyridin-3-yl)-2-(2-fluoro-4-methoxy-phenyl)-acetamide], the IC50 was determined as 578 nM.

With `Cc1cc(Cl)cc(Cl)c1CC(=O)NC1COc2nc(Cl)ccc21` (racemic) [Example 144, rac-N-(6-Chloro-2,3-dihydro-furo[2,3-b]pyridin-3-yl)-2-(2,4-dichloro-6-methyl-phenyl)-acetamide], the IC50 was found to be 50 nM.

In the case of `O=C(Cc1cccc(Cl)c1Cl)NC1CCOc2ncccc21` (racemic) [Example 54, rac-2-(2,3-Dichloro-phenyl)-N-(3,4-dihydro-2H-pyrano[2,3-b]pyridin-4-yl)-acetamide], the IC50 came to 67 nM.

In the case of `N#Cc1c(F)ccc(CC(=O)NC2COc3ncccc32)c1Cl` (racemic) [Example 107, rac-2-(2-Chloro-3-cyano-4-fluoro-phenyl)-N-(2,3-dihydro-furo[2,3-b]pyridin-3-yl)-acetamide], the IC50 worked out at 31 nM.

`N#Cc1cccc(CC(=O)NC2COc3ncccc32)c1Cl` (single isomer, unassigned) [Example 99, 2-(2-Chloro-3-cyano-phenyl)-N-2,3-dihydro-furo[2,3-b]pyridin-3-yl-acetamide]: the IC50 was 40 nM.

Regarding `Cc1cc(Cl)cc(Cl)c1CC(=O)NC1COc2cncc(C)c21` (racemic) [Example 131, rac-2-(2,4-Dichloro-6-methyl-phenyl)-N-(4-methyl-2,3-dihydro-furo[2,3-c]pyridin-3-yl)-acetamide], the half-inhibitory concentration (IC50) was determined as 14 nM.

For the compound `O=C(Cc1ccc(F)cc1C(F)(F)F)NC1COc2ncccc21` (racemic) [Example 18, rac-N-(2,3-Dihydro-furo[2,3-b]pyridin-3-yl)-2-(4-fluoro-2-trifluoromethyl-phenyl)-acetamide], the IC50 was found to be 393 nM.
